Assay results: patent US11091478B2 (Fochon Pharmaceuticals, Ltd., priority 2017, dated 2021)

What follows are molecules tested on DOHH2 cells (assay: Cell proliferation assay (MTS), DOHH2 cells, 120 h). Details: Homo sapiens, DOHH-2, 120 h.
Format: cell-based
Excerpt: Cell Proliferation Assays
MTS testing kit was purchased from Promega. The RPMI-1640, Fetal bovine serum and Penicillin-Streptomycin were purchased from Gibco. Dimethyl sulfoxide (DMSO) was purchased from Sigma.
To investigate whether a compound is able to inhibit the activity of BCL-2 in cells, a mechanism-based assay using DOHH2 (DSMZ No.® ACC 47) and RS4;11 (ATCC® CRL-1873™) cell was developed. In this assay, inhibition of Bcl-2 was detected by the inhibition of DOHH2 cells proliferation. DOHH2 cells were cultured in culture flasks to 40-80% confluence in RPMI-1640 plus 10% fetal bovine serum. Cells were collected and plated onto 96-well plates at desired cell density (5000 cells/well). Plates were incubated overnight at 37° C., with 5% CO2 to adhere. Compounds were added to the plates, and the final compound concentrations were 10000, 3333, 1111, […], 124, 41, 14, 4.6 and 1.5 nM. Plates plated with DOHH2 or RS4;11 cells were placed at 37° C., with 5% CO2 for 120 h (DOHH2) or 72 h (RS4;11) respectively. 20 μl MTS/100 μl medium mixture solution were added to each well and incubate the plates for exactly 2 hours. The reaction was stopped by adding 25 μl 10% SDS per well. Measure absorbance at 490 nm and 650 nm (reference wavelength). IC50 was calculated using GraphPad Prism 5.0.
Select compounds prepared as described above were assayed according to the biological procedures described herein.

In order of rising IC50:
1. CC1(C)CCC(CN2CCN(c3ccc(C(=O)NS(=O)(=O)c4cc([N+](=O)[O-])c5nc(CN6CCOCC6)[nH]c5c4)c(Oc4cnc5[nH]ccc5c4)c3)CC2)=C(c2ccc(Cl)cc2)C1 [Example 1-27, 2-((1H-pyrrolo[2,3-b]pyridin-5-yl)oxy)-4-(4-((4′-chloro-5,5-dimethyl-3,4,5,6-tetrahydro-[1,1′-biphenyl]-2-yl)methyl)piperazin-1-yl)-N-((2-(morpholinomethyl)-4-nitro-1H-benzo[d]imidazol-6-yl)sulfonyl)benzamide]  51 nM
2. CC1(C)CCC(CN2CCN(c3ccc(C(=O)NS(=O)(=O)c4cc5c(c([N+](=O)[O-])c4)N[C@@H](CN=S4(=O)CCCC4)CO5)c(Oc4cnc5[nH]ccc5c4)c3)CC2)=C(c2ccc(Cl)cc2)C1 [Example 2-76, (S)-2-((1H-pyrrolo[2,3-b]pyridin-5-yl)oxy)-4-(4-((4′-chloro-5,5-dimethyl-3,4,5,6-tetra-hydro-[1,1′-biphenyl]-2-yl)methyl)piperazin-1-yl)-N-((5-nitro-3-(((1-oxidotetrahydro-1λ^6-thiophen-1-ylidene)amino)methyl)-3,4-dihydro-2H-benzo[b][1,4]oxazin-7-yl)sulfo-nyl)benzamide]  120 nM
3. CN1CCN(C[C@@H]2COc3cc(S(=O)(=O)NC(=O)c4ccc(N5CCN(CC6=C(c7ccc(Cl)cc7)CC(C)(C)CC6)CC5)cc4Oc4cnc5[nH]ccc5c4)cc([N+](=O)[O-])c3N2)CC1 [Example 2-4, (R)-2-((1H-pyrrolo[2,3-b]pyridin-5-yl)oxy)-4-(4-((4′-chloro-5,5-dimethyl-3,4,5,6-tetra-hydro-[1,1′-biphenyl]-2-yl)methyl)piperazin-1-yl)-N-((3-((4-methylpiperazin-1-yl)meth-yl)-5-nitro-3,4-dihydro-2H-benzo[b][1,4]oxazin-7-yl)sulfonyl)benzamide]  139 nM
4. CC1(C)CCC(CN2CCN(c3ccc(C(=O)NS(=O)(=O)c4cc5c(c([N+](=O)[O-])c4)N[C@H](CCO)C5)c(Oc4cnc5[nH]ccc5c4)c3)CC2)=C(c2ccc(Cl)cc2)C1 [Example 1-20, (S)-2-((1H-pyrrolo[2,3-b]pyridin-5-yl)oxy)-4-(4-((4′-chloro-5,5-dimethyl-3,4,5,6-tetra-hydro-[1,1′-biphenyl]-2-yl)methyl)piperazin-1-yl)-N-((2-(2-hydroxyethyl)-7-nitro-indolin-5-yl)sulfonyl)benzamide]  170 nM
5. CC1(C)CCC(CN2CCN(c3ccc(C(=O)NS(=O)(=O)c4cc5c(c([N+](=O)[O-])c4)N[C@H](CO)C5)c(Oc4cnc5[nH]ccc5c4)c3)CC2)=C(c2ccc(Cl)cc2)C1 [Example 1-6, (S)-2-((1H-pyrrolo[2,3-b]pyridin-5-yl)oxy)-4-(4-((4′-chloro-5,5-dimethyl-3,4,5,6-tetra-hydro-[1,1′-biphenyl]-2-yl)methyl)piperazin-1-yl)-N-((2-(hydroxymethyl)-7-nitroindolin-5-yl)sulfonyl)benzamide]  221 nM
6. CC(=O)NCC[C@@H]1COc2cc(S(=O)(=O)NC(=O)c3ccc(N4CCN(CC5=C(c6ccc(Cl)cc6)CC(C)(C)CC5)CC4)cc3Oc3cnc4[nH]ccc4c3)cc([N+](=O)[O-])c2N1 [Example 2-62, (R)-2-((1H-pyrrolo[2,3-b]pyridin-5-yl)oxy)-N-((3-(2-acetamidoethyl)-5-nitro-3,4-di-hydro-2H-benzo[b][1,4]oxazin-7-yl)sulfonyl)-4-(4-((4′-chloro-5,5-dimethyl-3,4,5,6-tetra-hydro-[1,1′-biphenyl]-2-yl)methyl)piperazin-1-yl)benzamide]  230 nM
7. CC1(C)CCC(CN2CCN(c3ccc(C(=O)NS(=O)(=O)c4cc5c(c([N+](=O)[O-])c4)N[C@H](CN4CCC(C)(O)CC4)C5)c(Oc4cnc5[nH]ccc5c4)c3)CC2)=C(c2ccc(Cl)cc2)C1 [Example 1-4, (S)-2-((1H-pyrrolo[2,3-b]pyridin-5-yl)oxy)-4-(4-((4′-chloro-5,5-dimethyl-3,4,5,6-tetra-hydro-[1,1′-biphenyl]-2-yl)methyl)piperazin-1-yl)-N-((2-((4-hydroxy-4-methylpiperidin-1-yl)methyl)-7-nitroindolin-5-yl)sulfonyl) benzamide]  308 nM
8. CC1(C)CCC(CN2CCN(c3ccc(C(=O)NS(=O)(=O)c4cc5c(c([N+](=O)[O-])c4)N[C@H](CCNC(=O)C4CCOCC4)CO5)c(Oc4cnc5[nH]ccc5c4)c3)CC2)=C(c2ccc(Cl)cc2)C1 [Example 2-57, (R)-N-(2-(7-(N-(2-((1H-pyrrolo[2,3-b]pyridin-5-yl)oxy)-4-(4-((4′-chloro-5,5-dimethyl-3,4,5,6-tetrahydro-[1,1′-biphenyl]-2-yl)meth-yl)piperazin-1-yl)benzoyl)sulfamoyl)-5-nitro-3,4-dihydro-2H-benzo[b][1,4]oxazin-3-yl)ethyl)tetrahydro-2H-pyran-4-carboxamide]  392 nM
9. C[C@H]1COCCN1C[C@H]1COc2cc(S(=O)(=O)NC(=O)c3ccc(N4CCN(CC5=C(c6ccc(Cl)cc6)CC(C)(C)CC5)CC4)cc3Oc3cnc4[nH]ccc4c3)cc([N+](=O)[O-])c2N1 [Example 2-85, 2-((1H-pyrrolo[2,3-b]pyridin-5-yl)oxy)-4-(4-((4′-chloro-5,5-dimethyl-3,4,5,6-tetra-hydro-[1,1′-biphenyl]-2-yl)methyl)piperazin-1-yl)-N-(((S)-3-(((S)-3-methylmorpholino)meth-yl)-5-nitro-3,4-dihydro-2H-benzo[b][1,4]oxazin-7-yl)sulfonyl)benzamide]  434 nM
10. C[C@@H]1COCCN1C[C@H]1COc2cc(S(=O)(=O)NC(=O)c3ccc(N4CCN(CC5=C(c6ccc(Cl)cc6)CC(C)(C)CC5)CC4)cc3Oc3cnc4[nH]ccc4c3)cc([N+](=O)[O-])c2N1 [Example 2-86, 2-((1H-pyrrolo[2,3-b]pyridin-5-yl)oxy)-4-(4-((4′-chloro-5,5-dimethyl-3,4,5,6-tetra-hydro-[1,1′-biphenyl]-2-yl)methyl)piperazin-1-yl)-N-(((S)-3-(((R)-3-methylmorpholino)meth-yl)-5-nitro-3,4-dihydro-2H-benzo[b][1,4]oxazin-7-yl)sulfonyl)benzamide]  648 nM
11. CC1(C)CCC(CN2CCN(c3ccc(C(=O)NS(=O)(=O)c4cc5c(c([N+](=O)[O-])c4)N[C@@H](CN4CCS(=O)(=NC6CC6)CC4)CO5)c(Oc4cnc5[nH]ccc5c4)c3)CC2)=C(c2ccc(Cl)cc2)C1 [Example 2-124, (S)-2-((1H-pyrrolo[2,3-b]pyridin-5-yl)oxy)-4-(4-((4′-chloro-5,5-dimethyl-3,4,5,6-tetra-hydro-[1,1′-biphenyl]-2-yl)methyl)piperazin-1-yl)-N-((3-((1-(cyclopropylimino)-1-oxi-do-1λ^6-thiomorpholino)methyl)-5-nitro-3,4-dihydro-2H-benzo[b][1,4]oxazin-7-yl)sulfonyl)benzamide]  649 nM
12. CN=S1(=O)CCN(C[C@H]2COc3cc(S(=O)(=O)NC(=O)c4ccc(N5CCN(CC6=C(c7ccc(Cl)cc7)CC(C)(C)CC6)CC5)cc4Oc4cnc5[nH]ccc5c4)cc([N+](=O)[O-])c3N2)CC1 [Example 2-122, (S)-2-((1H-pyrrolo[2,3-b]pyridin-5-yl)oxy)-4-(4-((4′-chloro-5,5-dimethyl-3,4,5,6-tetra-hydro-[1,1′-biphenyl]-2-yl)methyl)piperazin-1-yl)-N-((3-((1-(methylimino)-1-oxido-1λ^6-thiomorpholino)methyl)-5-nitro-3,4-di-hydro-2H-benzo[b][1,4]oxazin-7-yl)sulfonyl)benzamide]  660 nM
13. CC1(C)CCC(CN2CCN(c3ccc(C(=O)NS(=O)(=O)c4cc5c(c([N+](=O)[O-])c4)N[C@H](CCNC(=O)N4CCOCC4)CO5)c(Oc4cnc5[nH]ccc5c4)c3)CC2)=C(c2ccc(Cl)cc2)C1 [Example 2-59]  730 nM
14. CC1(C)CCC(CN2CCN(c3ccc(C(=O)NS(=O)(=O)c4cc5c(c([N+](=O)[O-])c4)N[C@@H](CCNC(=O)N4CCOCC4)CO5)c(Oc4cnc5[nH]ccc5c4)c3)CC2)=C(c2ccc(Cl)cc2)C1 [Example 2-58, (S)-N-(2-(7-(N-(2-((1H-pyrrolo[2,3-b]pyridin-5-yl)oxy)-4-(4-((4′-chloro-5,5-dimethyl-3,4,5,6-tetrahydro-[1,1′-biphenyl]-2-yl)meth-yl)piperazin-1-yl)benzoyl)sulfamoyl)-5-nitro-3,4-dihydro-2H-benzo[b][1,4]oxazin-3-yl)ethyl)morpholine-4-carboxamide]  868 nM
15. CC1(C)CCC(CN2CCN(c3ccc(C(=O)NS(=O)(=O)c4cc5c(c([N+](=O)[O-])c4)N[C@@H](CNS(=O)(=O)N4CCOCC4)CO5)c(Oc4cnc5[nH]ccc5c4)c3)CC2)=C(c2ccc(Cl)cc2)C1 [Example 2-67, (S)-2-((1H-pyrrolo[2,3-b]pyriidn-5-yl)oxy)-4-(4-((4′-chloro-5,5-dimethyl-3,4,5,6-tetra-hydro-[1,1′-biphenyl]-2-yl)methyl)piperazin-1-yl)-N-((3-((morpholine-4-sulfonamido)methyl)-5-nitro-3,4-dihydro-2H-benzo[b] [1,4]oxazin-7-yl)sulfonyl)benzamide]  1320 nM
